Experimental data reported in patent US20240279215A1 (Cytokinetics, Incorporated, priority 2022, published 2024).
Where two headings read alike, the source gives them in different places.

Key:
P-gp (MDR1) = assay: MDR1-MDCK bidirectional permeability assay; details: dog, MDCK-MDR1, pH 7.4, Efflux ratio
[1] = test system: MDCK-MDR1 cells (P-gp, MDR1); assay: MDR1-MDCK bidirectional permeability assay; details: A to B
human NAMPT = human NAMPT (Homo sapiens (Human), UniProt P43490); assay: NMN fluorescence biochemical assay (human recombinant NAMPT enzyme assay)
How it was run: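 Activation of recombinant human NAMPT (6 nM) was tested with 2.5 mM ATP, 20 μM PRPP and 150 μM nicotinamide in 50 mM HEPES pH 7.2 for 60 min at ambient temperature. NMN was derivatized with acetophenone/KOH/formic acid and read by fluorescence (355/460 nm) after 40 min.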

[2] = Plasma protein binding (PPB), mouse; type: in vitro ADME
[3] = Brain exposure assay in mice (brain-to-plasma ratio after oral administration); type: in vivo; details: mouse, 100 mg/kg; for concentration at 6 h / Kp at 2 h / Kp uu at 2 h / Kp at 6 h / Kp uu at 6 h: male, C57BL/6JNIFDC, oral; for Kp at 2 h / Kp at 6 h: total brain-plasma concentration ratio; for Kp uu at 2 h / Kp uu at 6 h: unbound brain-to-plasma partition coefficient; for Kp at 2 h / Kp uu at 2 h / Cbrain, free (μM) / Cbrain, total (μM) / Cplasma, free (μM) / Cplasma, total (μM): 2 hr
Method: This protocol was used to determine the brain-to-plasma ratio in vivo in mice post oral administration of test compounds. Mice (C57BL/6JNIFDC, male, non-fasted, 18-30 g body weight, 3 mice for each timepoint) were dosed orally at 100 mg/kg (10 mg test compound/mL formulation, 10 mL dosing volume/kg) with plasma and brain tissues obtained at 2- and 6-hours post-administration. The oral dosing formulation composition used was 10% N,N-dimethylacetamide:20% propylene glycol:70% of 40% aqueous 2-hydroxypropyl-β-cyclodextrin.
For the isolation of mouse plasma from dosed animals, approximately 0.3 mL blood was collected by orbital sinus bleed and centrifuged (4000 g, 5 minutes, 4° C.). The plasma samples were stored frozen at −75±15° C. until further processing.
For the isolation of brain tissue from dosed animals, whole brain tissues were collected from euthanized and fully exsanguinated mice. The tissues were quickly rinsed with distilled water, dried with absorbent paper, followed by rapid freezing on dry ice and then storage at −75±15° C. until further processing. Brain tissue samples obtained from frozen whole brain were weighed and the samples homogenized using three equivalents of distilled water (3 mL per gram of brain tissue).
Standard and quality control samples were prepared by adding 3 μL of the test compound dimethyl sulfoxide (DMSO) stock solutions to blank plasma (30 μL) and blank brain homogenate aliquots (30 μL). Standard curves for brain and plasma were generated over a 1 to 1,000 ng/g test compound concentration range. For the extraction of test compound from plasma and brain tissue homogenate samples, a solution of acetonitrile containing internal standard ([…]) was added to 30 μL of samples with added 3 μL of DMSO. The samples then were vortex-mixed followed by centrifugation at 4000 rpm (4° C., 15 minutes). The resultant supernatants were diluted 5-fold with distilled water. Finally, 10 μL of the diluted supernatant was injected onto an LC-MS/MS instrument for quantitative analysis of test compound.
The brain-to-plasma ratio was calculated by the relationship: Brain-to-plasma ratio=Cbrain/Cplasma; where Cb is the concentration in brain tissue and Cp is the concentration in plasma at the corresponding timepoint.
Kp is the total brain-plasma concentration ratio; Kp=Cbrain/Cplasma.
Kp, uu is the unbound brain-to-plasma partition coefficient (Kp,uu,brain). It is a measure of the extent of the distribution equilibrium of a compound between the unbound (free) fractions in brain and in blood plasma; Kp, uu brain=Cu, brain/Cu, plasma.

[4] = Brain tissue binding, mouse; type: in vitro ADME
[5] = plasma, read-out: Cplasma, free
[6] = plasma, read-out: Cplasma, total

Chain of human NAMPT (P43490 whole entry): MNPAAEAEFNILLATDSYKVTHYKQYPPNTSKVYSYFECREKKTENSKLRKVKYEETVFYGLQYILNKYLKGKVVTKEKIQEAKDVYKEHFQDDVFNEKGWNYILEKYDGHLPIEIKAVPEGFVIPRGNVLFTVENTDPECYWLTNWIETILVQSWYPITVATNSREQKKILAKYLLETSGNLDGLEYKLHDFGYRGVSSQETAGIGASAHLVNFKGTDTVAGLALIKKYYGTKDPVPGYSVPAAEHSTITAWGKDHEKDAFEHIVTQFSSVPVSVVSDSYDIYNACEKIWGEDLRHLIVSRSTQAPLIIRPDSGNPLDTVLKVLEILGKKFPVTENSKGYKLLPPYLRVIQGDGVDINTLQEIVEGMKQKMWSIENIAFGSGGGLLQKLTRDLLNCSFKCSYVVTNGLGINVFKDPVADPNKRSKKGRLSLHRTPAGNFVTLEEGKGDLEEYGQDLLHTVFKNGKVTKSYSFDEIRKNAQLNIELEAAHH

| SMILES | efflux ratio at 120 min, 1 μM (P-gp (MDR1)) | PappAB [1] | AC1.4 Human (human NAMPT) [µM] | EC50 (human NAMPT) [µM] | fraction unbound ([2]; mouse, plasma) | concentration at 6 h ([3]; brain, read-out: Cbrain, free) [nM] | concentration at 6 h ([3]; brain, read-out: Cbrain, total) [nM] | concentration at 6 h [3, 5] [nM] | concentration at 6 h [3, 6] [nM] | Kp at 2 h [3] | Kp uu at 2 h [3] | Kp at 6 h [3] | Kp uu at 6 h [3] | Cbrain, free (μM) [3] | Cbrain, total (μM) [3] | Cplasma, free (μM) [3] | Cplasma, total (μM) [3] | fraction unbound ([4]; mouse, brain tissue) | fraction unbound [2] | fraction unbound [4] |
| --- | --- | --- | --- | --- | --- | --- | --- | --- | --- | --- | --- | --- | --- | --- | --- | --- | --- | --- | --- | --- |
| CN(C)C(=O)N1CCC[C@H](c2ccc(NC(=O)OCc3cnco3)cc2)C1 [Compound 376, oxazol-5-ylmethyl (R)-(4-(1-(dimethylcarbamoyl)piperidin-3-yl)phenyl)carbamate] | 4.11 | 8.06 | 0.06 | 2.02 | 0.024 | 1000 | 7500 | 1090 | 45500 | 0.16 | 0.89 | 0.16 | 0.92 | 2.2, μM | 16.5, μM | 2.48, μM | 104, μM | 0.132 |  |  |
| CN(C)S(=O)(=O)N1CC2(CC(Cc3ccc(NC(=O)OCc4cnco4)cc3F)C2)C1 [Compound 399, oxazol-5-ylmethyl (4-((2-(N,N-dimethylsulfamoyl)-2-azaspiro[3.3]heptan-6-yl)methyl)-3-fluorophenyl)carbamate] |  |  | 0.15 | 3.88 |  | 140 | 11500 | 270 | 26800 | 0.44 | 0.52 | 0.43 | 0.52 | 0.23, μM | 19.5, μM | 0.44, μM | 44, μM |  | 0.01 | 0.012 |
| CN(C)C(=O)N1CC2(CC(c3ccc(NC(=O)OCc4cnco4)cc3F)C2)C1 [Compound 400, oxazol-5-ylmethyl (4-(2-(dimethylcarbamoyl)-2-azaspiro[3.3]heptan-6-yl)-3-fluorophenyl)carbamate] |  |  | 0.11 | 15.4 |  | 80 | 1400 | 140 | 3100 | 0.43 | 0.53 | 0.43 | 0.57 | 0.31, μM | 5.8, μM | 0.58, μM | 13.5, μM |  | 0.043 | 0.054 |

Now from value to molecule, other results behind:

| efflux ratio at 120 min, 1 μM (P-gp (MDR1)) | PappAB [1] | AC1.4 Human (human NAMPT) [µM] | EC50 (human NAMPT) [µM] | SMILES | fraction unbound ([2]; mouse, plasma) | concentration at 6 h ([3]; brain, read-out: Cbrain, free) [nM] | concentration at 6 h ([3]; brain, read-out: Cbrain, total) [nM] | concentration at 6 h [3, 5] [nM] | concentration at 6 h [3, 6] [nM] | Kp at 2 h [3] | Kp uu at 2 h [3] | Kp at 6 h [3] | Kp uu at 6 h [3] | Cbrain, free (μM) [3] | Cbrain, total (μM) [3] | Cplasma, free (μM) [3] | Cplasma, total (μM) [3] | fraction unbound ([4]; mouse, brain tissue) | fraction unbound [2] | fraction unbound [4] |
| --- | --- | --- | --- | --- | --- | --- | --- | --- | --- | --- | --- | --- | --- | --- | --- | --- | --- | --- | --- | --- |
| 1.11 | 13.26 | 0.56 | 48.9 | O=C(Nc1ccc(CC2CCN(CC(F)F)CC2)cc1)OCc1cnco1 [Compound 59, oxazol-5-ylmethyl (4-((1-(2,2-difluoroethyl)piperidin-4-yl)methyl)phenyl)carbamate] |  |  |  |  |  |  |  |  |  |  |  |  |  |  |  |  |
| 1.04 | 9.10 | 0.61 | 22.9 | O=C(Nc1ccc(CC2CCN(CC(F)(F)F)CC2)cc1)OCc1cnco1 [Compound 70, oxazol-5-ylmethyl (4-((1-(2,2,2-trifluoroethyl)piperidin-4-yl)methyl)phenyl)carbamate] |  |  |  |  |  |  |  |  |  |  |  |  |  |  |  |  |
| 2.26 | 13.54 | 1.06 | 41.1 | O=C(Nc1ccc(CCC2CCN(C3COC3)CC2)cc1)OCc1cnco1 [Compound 132, oxazol-5-ylmethyl (4-(2-(1-(oxetan-3-yl)piperidin-4-yl)ethyl)phenyl)carbamate] |  |  |  |  |  |  |  |  |  |  |  |  |  |  |  |  |
| 1.5 | 9.8 | 2.17 | 20.8 | O=C(Nc1ccc(COC2CCN(C3COC3)CC2)cc1)OCc1ccc(Cl)cc1 [Compound 232, 4-chlorobenzyl (4-(((1-(oxetan-3-yl)piperidin-4-yl)oxy)methyl)phenyl)carbamate] |  |  |  |  |  |  |  |  |  |  |  |  |  |  |  |  |
| 2.19 | 9.11 | 0.14 | 3.07 | CC(C)S(=O)(=O)N1CCC(Cc2ccc(NC(=O)OCc3cnco3)cc2)CC1 [Compound 464, oxazol-5-ylmethyl (4-((1-(isopropylsulfonyl)piperidin-4-yl)methyl)phenyl)carbamate] |  |  |  |  |  |  |  |  |  |  |  |  |  |  |  |  |
